According to paper PMC6720825, “Thiol-ene "Click" Synthesis and Pharmacological Evaluation of C-Glycoside sp^2-Iminosugar Glycolipids” (Molecules, 2019):
“Also recorded” adds a separate entry of the source.

Legend:
[1] = tested on: T-47D, breast; design: method as in doi:10.1039/C5RA02627J; settings: Figure 1; cited from earlier work
[2] = tested on: intracellular amastigotes of Leishmania donovani (amastigotes HU3); design: method as in doi:10.1039/C5RA02627J; settings: cited from earlier work; for EC50: intracellular amastigotes of Leishmania donovani
[3] = target: T1, green coffee bean α-galactosidase (Coffea arabica, UniProt Q42656); experiment: Glycosidase inhibition, green coffee bean α-galactosidase; assay type: biochemical, green coffee beans; settings: 1 mM concentration
T1 construct: purchased
T1 sequence (Q42656 16-378): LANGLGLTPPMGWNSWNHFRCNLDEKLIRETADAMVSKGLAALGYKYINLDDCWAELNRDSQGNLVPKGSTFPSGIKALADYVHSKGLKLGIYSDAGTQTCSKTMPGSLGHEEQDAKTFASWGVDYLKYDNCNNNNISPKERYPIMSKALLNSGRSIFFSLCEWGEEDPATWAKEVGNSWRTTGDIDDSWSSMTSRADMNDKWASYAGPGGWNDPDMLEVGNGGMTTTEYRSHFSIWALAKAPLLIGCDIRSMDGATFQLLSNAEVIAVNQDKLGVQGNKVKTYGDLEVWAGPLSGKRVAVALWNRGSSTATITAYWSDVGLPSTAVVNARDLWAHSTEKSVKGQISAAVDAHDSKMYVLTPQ
Source text: (§1) The inhibitory properties of the new sp^2-IGLs 1–12 and the α-C-allyl ONJ and OGJ glycosides 15, and 24 were examined against a panel of commercial glycosidases that included the α-glucosidases maltase (Saccharomyces cerevisiae) and amyloglucosidase (Aspergillus niger), the β-glucosidases from almonds and bovine liver, α-galactosidase from green coffee beans, β-galactosidase from Escherichia coli, α-mannosidase from Jack beans, and β-mannosidase from Helix pomatia. The corresponding inhibition constant (Ki) values are collected in Table 1.
Inhibition constant (Ki) values were determined by spectrophotometrically measuring the residual hydrolytic activities of the glycosidases against the respective o- (for β-galactosidase from E. coli) or p-nitrophenyl α- or β-D-glycopyranoside (for other glycosidases) in the presence of the iminosugars. […] The absorbance of the resulting mixture was determined at 405 nm. Approximate value of Ki was determined from the slope of Dixon plots using a fixed concentration of substrate (around the Km value for the different glycosidases) and various concentrations of inhibitor. Full Ki determinations and enzyme inhibition mode were determined from the slope of Lineweaver–Burk plots and double reciprocal analysis. […]

[4] = target: T2, β-Glcase (Bovine Liver) (Bos taurus, UniProt F1MNT6); experiment: Glycosidase inhibition (Ki), bovine liver β-glucosidase; assay type: biochemical; settings: mean ± SD, three independent determinations; competitive inhibition
T2 sequence (F1MNT6 1-469): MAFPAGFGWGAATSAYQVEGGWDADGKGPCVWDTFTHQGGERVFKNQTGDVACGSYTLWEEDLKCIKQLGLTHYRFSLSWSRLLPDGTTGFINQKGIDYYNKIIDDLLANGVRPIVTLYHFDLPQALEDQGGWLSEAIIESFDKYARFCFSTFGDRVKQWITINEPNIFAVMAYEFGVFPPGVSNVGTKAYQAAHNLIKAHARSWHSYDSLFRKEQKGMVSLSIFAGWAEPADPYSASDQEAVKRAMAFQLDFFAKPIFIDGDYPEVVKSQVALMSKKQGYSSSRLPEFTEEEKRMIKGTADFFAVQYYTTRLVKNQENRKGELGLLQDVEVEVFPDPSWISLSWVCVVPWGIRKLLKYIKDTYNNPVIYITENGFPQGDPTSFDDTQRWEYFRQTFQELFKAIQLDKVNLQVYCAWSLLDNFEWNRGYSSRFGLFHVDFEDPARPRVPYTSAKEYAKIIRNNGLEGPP
Source text: as §1
(§2) Inhibition constant (Ki) values were determined by spectrophotometrically measuring the residual hydrolytic activities of the glycosidases against the respective o- (for β-galactosidase from E. coli) or p-nitrophenyl α- or β-D-glycopyranoside (for other glycosidases) in the presence of the iminosugars. Each assay was performed in phosphate buffer or phosphate-citrate buffer (for α- or β-mannosidase and amyloglucosidase) at the optimal pH for the enzymes. The reactions were initiated by addition of the enzyme to a solution of the substrate in the absence or presence of various inhibitor concentrations. The mixture was incubated for 10–30 min at 37 °C or 55 °C (for amyloglucosidase) and the reaction was quenched by addition of 1 M Na2CO3. Reaction times were appropriate to obtain 10–20% conversion of the substrate in order to achieve linear rates. The absorbance of the resulting mixture was determined at 405 nm. Approximate value of Ki was determined from the slope of Dixon plots using a fixed concentration of substrate (around the Km value for the different glycosidases) and various concentrations of inhibitor. Full Ki determinations and enzyme inhibition mode were determined from the slope of Lineweaver–Burk plots and double reciprocal analysis. Representative examples of Dixon and Lineweaver–Burk plots are shown in the Supplementary materials.

[5] = target: T3, α-Glcase (Yeast Maltase) (Saccharomyces cerevisiae, UniProt P53341); experiment: Glycosidase inhibition (Ki), yeast maltase α-glucosidase; assay type: biochemical; settings: for Ki, α-Glcase (Yeast Maltase): mean ± SD, three independent determinations, competitive inhibition
T3 construct: purchased
T3 sequence (P53341 whole entry): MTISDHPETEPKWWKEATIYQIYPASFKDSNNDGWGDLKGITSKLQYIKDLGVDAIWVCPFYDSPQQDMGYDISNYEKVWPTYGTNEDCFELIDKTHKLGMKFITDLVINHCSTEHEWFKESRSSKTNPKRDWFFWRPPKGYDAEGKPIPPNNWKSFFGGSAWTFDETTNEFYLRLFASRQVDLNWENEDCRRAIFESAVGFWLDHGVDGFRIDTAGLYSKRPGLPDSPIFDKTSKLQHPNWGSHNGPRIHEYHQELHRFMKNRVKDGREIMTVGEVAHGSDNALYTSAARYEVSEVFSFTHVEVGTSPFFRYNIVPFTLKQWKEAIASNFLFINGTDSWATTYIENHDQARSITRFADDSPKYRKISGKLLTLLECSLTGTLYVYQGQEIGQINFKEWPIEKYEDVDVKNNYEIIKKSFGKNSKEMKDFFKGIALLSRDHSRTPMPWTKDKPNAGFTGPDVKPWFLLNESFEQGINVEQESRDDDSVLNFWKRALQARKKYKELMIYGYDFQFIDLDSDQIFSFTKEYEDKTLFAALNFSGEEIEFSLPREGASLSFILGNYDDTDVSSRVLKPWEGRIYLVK
Source text: as §1, §2

[6] = tested on: MCF-7, breast; design: method as in PMID 24124558, PMID 28145580; settings: Figure 1; cited from earlier work
[7] = tested on: MDA-MB-231, breast; design: method as in PMID 24124558, PMID 28145580; settings: Figure 1; cited from earlier work
[8] = tested on: A549, lung; design: method as in doi:10.1039/C5RA02627J; settings: Figure 1; cited from earlier work
[9] = tested on: different human tumor cell lines; design: method as in doi:10.1039/C5RA02627J; settings: read-out: GI50 against different human tumor cell lines; cited from earlier work
[10] = tested on: intracellular amastigotes of Leishmania donovani MHOM/ET/67/HU3 line; experiment: Susceptibility of intracellular Leishmania amastigotes (luciferase assay); assay type: cell-based; settings: L. donovani in THP-1 macrophages, 72 h at 37 °C, threshold 20 μM
Protocol: The leishmanicidal activity of all the synthesized sp^2-iminosugar C-glycosides (1–12) was evaluated against intracellular amastigotes of Leishmania donovani MHOM/ET/67/HU3 line with luciferase gene integrated into the parasite genome. […] A strong influence of the nature of the lipid chain α-linked to the pseudoanomeric position of the bicyclic core in the sp^2-IGLs was inferred from the corresponding data. […] The longer-chain sp^2-IGLs 2 and 8 were over the 20 μM concentration threshold in this assay. In the sulfone series, the results evidenced some disparity between the ONJ and OGJ epimers.
Macrophage-differentiated THP-1 cells, which are considered a suitable model for human macrophages, were plated at a density of 3 × 10^4 or 3 × 10^5 macrophages/well in 96-well white polystyrene microplates or 24-well tissue culture chamber slides, respectively, and were infected at a macrophage/parasite ratio of 1:10 with L. donovani promastigotes. Twenty-four hours after infection at 35 °C and 5% CO2, extracellular parasites were removed by washing with serum-free medium. Infected cell cultures were then incubated at different compound concentrations in RPMI 1640 medium plus 10% iFBS at 37 °C with 5% CO2 for 72 h. To determine the susceptibility of L. donovani LUC amastigotes, infected macrophages maintained in 96-well plates were lysed and then luminescence intensity was measured as indicative of the intracellular parasite growth, using the Luciferase Assay System Kit (Promega, Madison, Wis.) according to the instructions of the supplier. To determine the susceptibility of L. donovani HU3 amastigotes, infected macrophages maintained in 24-well plates were fixed for 30 min at 4 °C with 2.5% paraformaldehyde phosphate-buffered saline (PBS; 1.2 mM KH2PO4, 8.1 mM Na2HPO4, 130 mM NaCl, and 2.6 mM KCl adjusted to pH 7) and permeabilized with 0.1% Triton X-100 in PBS for 30 min. Intracellular parasites and macrophages were detected by nuclear staining with ProLong® Gold antifade reagent plus DAPI (Invitrogen). The percentage infection and mean number of amastigotes from infected macrophages were determined with 200 macrophages/well.

[11] = tested on: THP-1 cells; experiment: Cellular toxicity (MTT assay) in THP-1 cells; assay type: cell-based, human; settings: for EC50: Homo sapiens, THP-1, MTT assay, 72 h at 37 °C
Protocol: Human myelomonocytic cell line THP-1 was grown at 37 °C and 5% CO2 in RPMI-1640 supplemented with 10% iFBS, 2 mM […], 100 U/mL penicillin, and 100 μg/mL streptomycin; 3 × 10^4 cells/well in 96-well plates were differentiated to macrophages with 20 ng/mL of PMA treatment for 48 h followed by 24 h of culture in fresh medium. Cellular toxicity of all compounds was determined using the colorimetric MTT-based assay after incubation at 37 °C for 72 h in the presence of increasing concentrations of compounds [71].

[12] = tested on: human solid tumor cell lines A549, SW1573 (lung), HBL-100, T-47D (breast), HeLa (cervix), WiDr (colon); experiment: Antiproliferative activity (SRB assay) against a panel of six human solid tumor cell lines; assay type: cell-based; settings: for GI50: read-out: GI50 (concentration to achieve 50% growth inhibition), 48 h, tested 1 to 100 μM, only values below 100 μM significant
Protocol: The antiproliferative activity of all the sp^2-iminosugar C-glycosides (1–12) was evaluated against a panel of six representative human solid tumor cell lines including lung (A549 and SW1573), breast (HBL-100, T-47D), cervix (HeLa), and colon (WiDr).
All reagents were used as purchased from commercial suppliers without further purification. The human solid tumor cell lines A549 (lung), HBL-100 (breast), HeLa (cervix), SW1573 (lung), T-47D (breast), and WiDr (colon) were used in this study. These cell lines were a kind gift from Prof. G. J. Peters (VU Medical Center, Amsterdam, The Netherlands).
Cells were inoculated onto 96-well microtiter plates in a volume of 100 μL per well at densities of 2500 (A549, HBL-100, HeLa, and SW1573) and 5000 (T-47D and WiDr) cells per well, based on their doubling times. Compounds were initially dissolved in DMSO at 400 times the desired final maximum test concentration. Control cells were exposed to an equivalent concentration of DMSO (0.25% v/v, negative control). Each agent was tested in triplicate at different dilutions in the range of 1 to 100 μM. The drug treatment started on day 1 after plating. Drug incubation times were 48 h, after which cells were precipitated with 25 μL ice-cold TCA (50% w/v) and fixed for 60 min at 4 °C. Then the SRB assay was performed. The optical density (OD) of each well was measured at 530 nm, using BioTek’s PowerWave XS Absorbance Microplate Reader. Values were corrected for background OD from wells only containing medium. The antiproliferative activity for each compound, expressed as GI50 values, was calculated according to NCI formulas.

[13] = tested on: human lung fibroblast MRC-5 cells; experiment: Cellular toxicity (MTT assay) in MRC-5 cells; assay type: cell-based; settings: for EC50: Homo sapiens, MRC5, MTT assay, 72 h at 37 °C; for SI (EC50 MRC-5/EC50 parasite): Selectivity Index

## CCCCCCCCCCCCS[C@@H]1[C@H](O)[C@@H](O)[C@@H](O)[C@H]2COC(=O)N21 [DS-OGJ]
[1]
  GI50: 18 µM
[2]
  EC50: 15.5 µM

## C=CC[C@@H]1[C@H](O)[C@@H](O)[C@@H](O)[C@H]2COC(=O)N12 [Compound 24, (1R)-1-Allyl-5N,6O-oxomethylidene-1-deoxygalactonojirimycin]
[3]
  Inhibition of green coffee bean α-galactosidase: Neither epimeric OGJ sp^2-IGLs 7–12 nor α-allyl OGJ glycoside 24 behaved as inhibitors
[4]
  Ki, β-Glcase (Bovine Liver): n.i.
[5]
  Ki, α-Glcase (Yeast Maltase): n.i.

## C=CC[C@@H]1[C@H](O)[C@@H](O)[C@H](O)[C@H]2COC(=O)N12 [Compound 15, (1R)-1-Allyl-5N,6O-oxomethylidene-1-deoxynojirimycin]
[4]
  Ki, β-Glcase (Bovine Liver): n.i.
[5]
  Ki: 79 ± 8 µM

## CCCCCCCCS[C@@H]1[C@H](O)[C@@H](O)[C@H](O)[C@H]2COC(=O)N21 [OS-ONJ]
[6]
  IC50: 37 µM
[2]
  EC50: 73.3 µM
[7]
  IC50: 35 µM

## CCCCCCCCCCCCS[C@@H]1[C@H](O)[C@@H](O)[C@H](O)[C@H]2COC(=O)N21 [DS-ONJ]
[8]
  GI50: 16 µM
[9]
  GI50: < 20 µM
[2]
  Improvement of leishmanicidal potency relative to OS-ONJ: up to 5 fold
  EC50: 20.5 µM

## CC(C)(C)OC(=O)NCCSCCC[C@@H]1[C@H](O)[C@@H](O)[C@@H](O)[C@H]2COC(=O)N12 [Compound 9, (1R)-1-[3-(N-tert-Butoxycarbonylaminoethylthio)propyl]-5N,6O-oxomethylidene-1-deoxygalactonojirimycin]
[10]
  EC50: 13.4 ± 1.13 µM
[11]
  EC50: > 200 µM
[12]; 48 h, tested 1 to 100 μM, only values below 100 μM significant
  GI50 (concentration to achieve 50% growth inhibition): did not show any significant antiproliferative activity; also recorded: did not display significant antiproliferative activity
[12]
  GI50: > 100 µM
[4]
  Ki, β-Glcase (Bovine Liver): n.i.
[13]
  EC50: 140 ± 17.3 µM
  SI (EC50 MRC-5/EC50 parasite): 10.44
[5]
  Ki, α-Glcase (Yeast Maltase): n.i.

## CCCCCCCC[C@@H]1[C@H](O)[C@@H](O)[C@H](O)[C@H]2COC(=O)N12 [OC-ONJ]
[6]
  IC50: 26 µM
[7]
  IC50: 44 µM

## CCCCCCCCSCCC[C@@H]1[C@H](O)[C@@H](O)[C@@H](O)[C@H]2COC(=O)N12 [Compound 7, (1R)-1-[3-(Octylthio)propyl]-5N,6O-oxomethylidene-1-deoxygalactonojirimycin]
[10]
  EC50: 10.6 ± 1.51 µM
[11]
  EC50: 128 ± 5.71 µM
[11]; Selectivity Index
  SI (EC50 THP-1/EC50 parasite): 12.06
[12]
  GI50: 14 to 54 µM
[4]
  Ki, β-Glcase (Bovine Liver): n.i.
[13]
  EC50: 60.4 ± 2.8 µM
  SI (EC50 MRC-5/EC50 parasite): 5.72
[5]
  Ki, α-Glcase (Yeast Maltase): n.i.
